From US20020137929A1, “1 - (3-heterocyclylphenyl) isothiourea, -isourea, -guanidine and -amidine herbicidal agents” (Intellectual Property Department, BASF Aktiengesellschaft, priority 1998, published 2002)

Legend:
[1] = tested on: TRZAWR (Wheat, Winter, cv Riband); assay: Preemergence herbicidal evaluation; assay type: in vivo, Triticum aestivum; conditions: preemergence, rated 4-5 weeks after treatment, 0-9 scale
Summary of the method: (§1)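 Visual 0-9 rating vs control (stand, vigor, malformation, size, chlorosis, overall appearance), scored 4-5 wk after spraying. Seeded soil cups were treated preemergence with compound in aqueous acetone, ~0.0156-0.500 kg/ha equivalent.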

[2] = tested on: CASOB (Sicklepod); assay: Preemergence herbicidal evaluation; assay type: in vivo, Cassia obtusifolia; conditions: preemergence, rated 4-5 weeks after treatment, 0-9 scale
Summary of the method: as §1

[3] = tested on: ZEAMX (Corn, Field); assay: Preemergence herbicidal evaluation; assay type: in vivo, Zea mays; conditions: preemergence, rated 4-5 weeks after treatment, 0-9 scale
Summary of the method: as §1

[4] = tested on: IPOHE (Morningglory, Ivyleaf); assay: Preemergence herbicidal evaluation; assay type: in vivo, Ipomoea hederacea; conditions: preemergence, rated 4-5 weeks after treatment, 0-9 scale
Summary of the method: as §1

[5] = tested on: CHEAL (Lambsquarters, Common); assay: Preemergence herbicidal evaluation; assay type: in vivo, Chenopodium album; conditions: preemergence, rated 4-5 weeks after treatment, 0-9 scale
Summary of the method: as §1

[6] = tested on: ZEAMX (Corn, Field); assay: Postemergence herbicidal evaluation; assay type: in vivo, Zea mays; conditions: postemergence
Summary of the method: (§2)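 Two-week seedlings sprayed postemergence at 40 psi; formulation: 1:1 acetone/water, 0.5% TWEEN 20; application ≈0.0156–0.500 kg/ha. Greenhouse grow-out, then 0–9 visual scoring at 4–5 weeks.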

[7] = tested on: ABUTH (Velvetleaf); assay: Preemergence herbicidal evaluation; assay type: in vivo, Abutilon theophrasti; conditions: preemergence, rated 4-5 weeks after treatment, 0-9 scale
Summary of the method: as §1

[8] = tested on: CYPIR (Rice Flatsedge); assay: Postemergence weed control under flooded paddy conditions; assay type: in vivo, Cyperus iria; conditions: postemergence weeds, rated 3 to 4 weeks after treatment
Summary of the method: (§3)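 Herbicidal effect is judged by eye on a 0–9 scale versus control, 3–4 weeks after dosing. Dosing is into flood water kept 1.5–3 cm over the soil, at about 0.0313–0.500 kg/ha in aqueous/acetone 50/50 v/v, on 3–5 cm weeds and 1.5–2.5-leaf rice seedlings.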

[9] = tested on: CYPSE (Flatsedge); assay: as above; assay type: in vivo, Cyperus serotinus; conditions: postemergence weeds, rated 3 to 4 weeks after treatment
Summary of the method: as §3

[10] = tested on: IPOHE (Morningglory, Ivyleaf); assay: Postemergence herbicidal evaluation; assay type: in vivo, Ipomoea hederacea; conditions: postemergence
Summary of the method: as §2

[11] = tested on: ECHCG (Barnyardgrass); assay: Postemergence herbicidal evaluation; assay type: in vivo, Echinochloa crus-galli; conditions: postemergence
Summary of the method: as §2

[12] = tested on: SETVI (Foxtail, Green); assay: Postemergence herbicidal evaluation; assay type: in vivo, Setaria viridis; conditions: postemergence
Summary of the method: as §2

[13] = tested on: ORYSAT (Rice, Tebonnet); assay: Postemergence herbicidal evaluation; assay type: in vivo, Oryza sativa, (L.) Tebonnet; conditions: postemergence
Summary of the method: as §2

[14] = tested on: ECHCG (Barnyardgrass); assay: Preemergence herbicidal evaluation; assay type: in vivo, Echinochloa crus-galli; conditions: preemergence, rated 4-5 weeks after treatment, 0-9 scale
Summary of the method: as §1

[15] = tested on: CHEAL (Lambsquarters, Common); assay: Postemergence herbicidal evaluation; assay type: in vivo, Chenopodium album; conditions: postemergence
Summary of the method: as §2

[16] = tested on: ABUTH (Velvetleaf); assay: Postemergence herbicidal evaluation; assay type: in vivo, Abutilon theophrasti; conditions: postemergence
Summary of the method: as §2

[17] = tested on: GLXMAW (Soybean, Williams); assay: Preemergence herbicidal evaluation; assay type: in vivo, Glycine max, (L.) Merr. cv Williams; conditions: preemergence, rated 4-5 weeks after treatment, 0-9 scale
Summary of the method: as §1

Work on `CCOC(=O)CN1C(=O)C(CC(=O)OCCF)SC1=Nc1cc(-n2c(=O)cc(C(F)(F)F)n(C)c2=O)c(F)cc1Cl` (stereo not drawn) [Compound 82, 2-{{2-Chloro-5-[3,6-dihydro-3-methyl-2,6-dioxo-4-(trifluoromethyl)-1(2H)-pyrimidinyl]-4-fluoro-phenyl}imino}-4-oxo-3,5-thiazolidinediacetic acid, 3-ethyl 2-fluoroethyl ester] yielded a TRZAWR rating ([1]; 0.0156 kg/ha) of 0.0, a TRZAWR rating ([1]; 0.0313 kg/ha) of 0.0 and a TRZAWR rating ([1]; 0.0625 kg/ha) of 0.0. The TRZAWR rating ([1]; 0.1250 kg/ha) was 0.0, the TRZAWR rating ([1]; 0.2500 kg/ha) was 0.0 and the CASOB rating ([2]; 0.0156 kg/ha) was 0.0. The CASOB rating ([2]; 0.0313 kg/ha) was 0.0, the CASOB rating ([2]; 0.0625 kg/ha) was 3.0 and the CASOB rating ([2]; 0.1250 kg/ha) was 9.0. It also gave a CASOB rating ([2]; 0.2500 kg/ha) of 9.0, a ZEAMX rating ([3]; 0.0156 kg/ha) of 0.0 and a ZEAMX rating ([3]; 0.0313 kg/ha) of 0.0. It also gave a ZEAMX rating ([3]; 0.0625 kg/ha) of 0.0, a ZEAMX rating ([3]; 0.1250 kg/ha) of 0.0 and a ZEAMX rating ([3]; 0.2500 kg/ha) of 3.0. The IPOHE rating ([4]; 0.0156 kg/ha) was 0.0, the IPOHE rating ([4]; 0.0313 kg/ha) was 0.0 and the IPOHE rating ([4]; 0.0625 kg/ha) was 4.0. For the same compound, the IPOHE rating ([4]; 0.1250 kg/ha) was 9.0, the IPOHE rating ([4]; 0.2500 kg/ha) was 9.0 and the CHEAL rating ([5]; 0.0156 kg/ha) was 9.0. For the same compound, the CHEAL rating ([5]; 0.0313 kg/ha) was 9.0, the CHEAL rating ([5]; 0.0625 kg/ha) was 9.0 and the CHEAL rating ([5]; 0.1250 kg/ha) was 9.0. The CHEAL rating ([5]; 0.2500 kg/ha) was 9.0, the ZEAMX herbicidal rating ([6]; rate 0.0158 kg/ha) was 8.5 and the ZEAMX herbicidal rating ([6]; rate 0.0315 kg/ha) was 8.5. The ZEAMX herbicidal rating ([6]; rate 0.0630 kg/ha) was 9.0, the ABUTH rating ([7]; 0.0156 kg/ha) was 3.0 and the ABUTH rating ([7]; 0.0313 kg/ha) was 9.0. The ABUTH rating ([7]; 0.0625 kg/ha) was 9.0, the ABUTH rating ([7]; 0.1250 kg/ha) was 9.0 and the ABUTH rating ([7]; 0.2500 kg/ha) was 9.0. The “Herbicidal rating CYPIR” value ([8]; Rate 0.0313 kg/ha) was 0.0, the “Herbicidal rating CYPIR” value ([8]; Rate 0.0625 kg/ha) was 0.0 and the “Herbicidal rating CYPIR” value ([8]; Rate 0.1250 kg/ha) was 3.0. The “Herbicidal rating CYPIR” value ([8]; Rate 0.2500 kg/ha) was 3.0, the “Herbicidal rating CYPSE” value ([9]; Rate 0.0313 kg/ha) was 0.0 and the “Herbicidal rating CYPSE” value ([9]; Rate 0.0625 kg/ha) was 0.0. For the same compound, the “Herbicidal rating CYPSE” value ([9]; Rate 0.1250 kg/ha) was 2.0, the “Herbicidal rating CYPSE” value ([9]; Rate 0.2500 kg/ha) was 4.0 and the IPOHE herbicidal rating ([10]; rate 0.0158 kg/ha) was 9.0. It also gave an IPOHE herbicidal rating ([10]; rate 0.0315 kg/ha) of 9.0, an IPOHE herbicidal rating ([10]; rate 0.0630 kg/ha) of 9.0 and an ECHCG herbicidal rating ([11]; rate 0.0158 kg/ha) of 9.0. It also gave an ECHCG herbicidal rating ([11]; rate 0.0315 kg/ha) of 9.0, an ECHCG herbicidal rating ([11]; rate 0.0630 kg/ha) of 9.0 and an SETVI herbicidal rating ([12]; rate 0.0158 kg/ha) of 9.0. For the same compound, the SETVI herbicidal rating ([12]; rate 0.0315 kg/ha) was 9.0, the SETVI herbicidal rating ([12]; rate 0.0630 kg/ha) was 9.0 and the ORYSAT herbicidal rating ([13]; rate 0.0158 kg/ha) was 3.0. The ORYSAT herbicidal rating ([13]; rate 0.0315 kg/ha) was 3.0, the ORYSAT herbicidal rating ([13]; rate 0.0630 kg/ha) was 8.5 and the ECHCG rating ([14]; 0.0156 kg/ha) was 0.0. For the same compound, the ECHCG rating ([14]; 0.0313 kg/ha) was 0.0, the ECHCG rating ([14]; 0.0625 kg/ha) was 0.0 and the ECHCG rating ([14]; 0.1250 kg/ha) was 3.0. The ECHCG rating ([14]; 0.2500 kg/ha) was 7.0, the CHEAL herbicidal rating ([15]; rate 0.0158 kg/ha) was 7.0 and the CHEAL herbicidal rating ([15]; rate 0.0315 kg/ha) was 9.0. The CHEAL herbicidal rating ([15]; rate 0.0630 kg/ha) was 9.0, the ABUTH herbicidal rating ([16]; rate 0.0158 kg/ha) was 9.0 and the ABUTH herbicidal rating ([16]; rate 0.0315 kg/ha) was 9.0. For the same compound, the ABUTH herbicidal rating ([16]; rate 0.0630 kg/ha) was 9.0, the GLXMAW rating ([17]; 0.0156 kg/ha) was 0.0 and the GLXMAW rating ([17]; 0.0313 kg/ha) was 0.0. For the same compound, the GLXMAW rating ([17]; 0.0625 kg/ha) was 0.0, the GLXMAW rating ([17]; 0.1250 kg/ha) was 0.0 and the GLXMAW rating ([17]; 0.2500 kg/ha) was 5.0.
